Measurements reported in patent US20250215039A1, “NUCLEOSIDES FOR TREATING CANCER” (PRIMEFOUR THERAPEUTICS, INC., priority 2022, published 2025).
Where two headings read alike, the source gives them in different places.

Tests used:
cancer cell lines = experiment: Cancer cell proliferation activity (CellTiterGlo, 72 h); type: cell-based; conditions: 72 h, 72 h, read-out: IC50
In short: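 Readout is CellTiterGlo luminescence after 72 h compound exposure (0.1% DMSO final), started one day post-seeding, at 37 °C.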

[1] = target: human cytidine deaminase (CDA) (Homo sapiens, UniProt P32320); experiment: Metabolism by human cytidine deaminase (CDA), substrate absorbance at 290 nm
human cytidine deaminase (CDA), sequence (P32320 whole entry): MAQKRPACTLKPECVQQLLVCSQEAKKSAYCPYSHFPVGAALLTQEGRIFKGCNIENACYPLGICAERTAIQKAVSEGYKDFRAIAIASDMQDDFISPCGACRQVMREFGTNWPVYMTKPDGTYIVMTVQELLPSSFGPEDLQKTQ
Method: Transfer 7.2 μl of each of the substrate DMSO stock in step 2 into a 500 μl 96-Well V-bottom Microplate, clear SBS footprint, cat #P-96-450V-C
Add 352.8 μl assay buffer to the wells
For deaminated product compounds mix 4 μl product with 196 μl assay buffer
This was incubated at 37° C. for 1 h. 200 μl of this mixture was transferred into the assay plate to serve as the product control.
Product+buffer: mix 80 ul of the 2.5× intermediate product stocks (from step 3) with 120 ul assay buffer into product control (no enzyme) wells
Incubate the plate alongside the 20 nM CDA enzyme intermediate stock at 37° C. to temperature equilibrate reagents
Add 120 μl of the 20 nM enzyme mix into the Substrate+CDA wells and start reading at 290 nm every 30 s for about 60 min
50 and 200 uM substrate and product
In 100 mM Tris, pH 7.5, 100 mM KCl, 0.8% carryover DMSO
5 min incubation at 37° C.
Absorbance at 290 nm every 30 s at 37° C. for 1 h using FlexStation 3
Convert A290 to concentration of substrate remaining at time t after enzyme addition:
[formula] • where: • St=absorbance reading of: substrate+CDA wells at time t • So=Average absorbance reading of: substrate+buffer wells • Po=Average absorbance reading of: product+buffer wells • [S]t=initial substrate concentration • Use GraphPad to plot [substrate] against time to calculate initial velocity or slope (μMs^−1) i.e. the linear range of each curve • Express rate in s^−1 by dividing initial velocity by the total enzyme concentration.
Plot rate against [substrate] and fit data to standard Michaelis Menten equation to obtain kcat and KM parameters.

## N#C[C@]1(CO)O[C@@H](n2cc(F)c(N)nc2=O)C[C@@H]1O [Cpd. No. 6, (2R,3S,5R)-5-(4-amino-5-fluoro-2-oxopyrimidin-1(2H)-yl)-3-hydroxy-2-(hydroxymethyl)tetrahydrofuran-2-carbonitrile]
Cancer cell lines; 5637 cell line (bladder)
  IC50: > 50 µM
Cancer cell lines; CLS439 cell line (bladder)
  IC50: > 50 µM
Cancer cell lines; HS729 cell line (muscle)
  IC50: > 50 µM
Cancer cell lines; JAR cell line (placenta)
  IC50: > 50 µM
Cancer cell lines; U20S cell line, bone
  IC50: > 50 µM
Cancer cell lines; Homo sapiens, 22Rv1, 72 h, 22RV1 cell line (prostate)
  IC50: > 50 µM
Cancer cell lines; Homo sapiens, 786-0, 72 h, 786O cell line (kidney)
  IC50: > 50 µM
Cancer cell lines; Homo sapiens, A204, 72 h, A204 cell line (muscle)
  IC50: 7.27 µM
Cancer cell lines; Homo sapiens, A549, 72 h, A549 cell line, lung
  IC50: > 50 µM
Cancer cell lines; Homo sapiens, A673, 72 h, A673 cell line (bone)
  IC50: > 50 µM
Cancer cell lines; Homo sapiens, A2780, 72 h, A2780 cell line (ovary)
  IC50: > 50 µM
Cancer cell lines; Homo sapiens, A-375, 72 h, A375 cell line (skin)
  IC50: > 50 µM
Cancer cell lines; Homo sapiens, A-431, 72 h, A431 cell line (skin)
  IC50: > 50 µM
Cancer cell lines; Homo sapiens, ACHN, ACHN cell line (kidney)
  IC50: > 50 µM
Cancer cell lines; Homo sapiens, ASPC1, 72 h, ASPC1 cell line (pancreas)
  IC50: > 50 µM
Cancer cell lines; Homo sapiens, BT-20, 72 h, BT20 cell line (breast)
  IC50: > 50 µM
Cancer cell lines; Homo sapiens, BXPC-3, 72 h, BXPC3 cell line (pancreas)
  IC50: > 50 µM
Cancer cell lines; Homo sapiens, C-33-A, C33A cell line, endometrial
  IC50: > 50 µM
Cancer cell lines; Homo sapiens, CAKI-1, 72 h, CAKI1 cell line (kidney)
  IC50: > 50 µM
Cancer cell lines; Homo sapiens, COLO 205, 72 h, COLO205 cell line (colon)
  IC50: > 50 µM
Cancer cell lines; Homo sapiens, COLO-678, 72 h, COLO678 cell line (colon)
  IC50: > 50 µM
Cancer cell lines; Homo sapiens, Ca-Ski, CASKI cell line, endometrial
  IC50: > 50 µM
Cancer cell lines; Homo sapiens, Caco-2, 72 h, CACO2 cell line (colon)
  IC50: > 50 µM
Cancer cell lines; Homo sapiens, Calu-6, 72 h, CALU6 cell line (lung)
  IC50: > 50 µM
Cancer cell lines; Homo sapiens, DLD-1, 72 h, DLD1 cell line (colon)
  IC50: > 50 µM
Cancer cell lines; Homo sapiens, DU-145, 72 h, DU145 cell line (prostate)
  IC50: > 50 µM
Cancer cell lines; Homo sapiens, EFO-21, 72 h, EFO21 cell line (ovary)
  IC50: > 50 µM
Cancer cell lines; Homo sapiens, EJ-28, 72 h, EJ28 cell line (bladder)
  IC50: > 50 µM
Cancer cell lines; Homo sapiens, Granta-519, 72 h, GRANTA-519 cell line (hematological)
  IC50: 0.46 µM
Cancer cell lines; Homo sapiens, HCT-15, 72 h, HCT15 cell line (colon)
  IC50: > 50 µM
Cancer cell lines; Homo sapiens, HCT-116, 72 h, HCT116 cell line (colon)
  IC50: > 50 µM
Cancer cell lines; Homo sapiens, HEK293, 72 h, HEK293 cell line (kidney)
  IC50: > 50 µM
Cancer cell lines; Homo sapiens, HL-60, 72 h, HL-60 cell line (hematological)
  IC50: > 50 µM
Cancer cell lines; Homo sapiens, HT-29, 72 h, HT29 cell line (colon)
  IC50: > 50 µM
Cancer cell lines; Homo sapiens, HT-1080, 72 h, HT1080 cell line (connective tissue)
  IC50: > 50 µM
Cancer cell lines; Homo sapiens, HeLa, HELA cell line, endometrial
  IC50: > 50 µM
Cancer cell lines; Homo sapiens, HepG2, 72 h, HEPG2 cell line (liver)
  IC50: > 50 µM
Cancer cell lines; Homo sapiens, Hs-578T, HS578T cell line, breast
  IC50: > 50 µM
Cancer cell lines; Homo sapiens, IGROV-1, 72 h, IGROV1 cell line (ovary)
  IC50: > 50 µM
Cancer cell lines; Homo sapiens, IMR-90, 72 h, IMR90 cell line, lung
  IC50: > 50 µM
Cancer cell lines; Homo sapiens, J82, 72 h, J82 cell line (bladder)
  IC50: > 50 µM
Cancer cell lines; Homo sapiens, JEG-3, 72 h, JEG3 cell line (placenta)
  IC50: > 50 µM
Cancer cell lines; Homo sapiens, JIMT-1, 72 h, JIMT1 cell line (breast)
  IC50: > 50 µM
Cancer cell lines; Homo sapiens, K562, 72 h, K-562 cell line (hematological)
  IC50: > 50 µM
Cancer cell lines; Homo sapiens, Kasumi 1, 72 h, KASUMI-1 cell line (hematological)
  IC50: > 50 µM
Cancer cell lines; Homo sapiens, L-363, 72 h, L-363 cell line (hematological)
  IC50: > 50 µM
Cancer cell lines; Homo sapiens, LoVo, LOVO cell line (colon)
  IC50: > 50 µM
Cancer cell lines; Homo sapiens, MCF7, 72 h, MCF7 cell line (breast)
  IC50: > 50 µM
Cancer cell lines; Homo sapiens, MDA-MB-231, 72 h, MDAMB231 cell line (breast)
  IC50: > 50 µM
Cancer cell lines; Homo sapiens, MDA-MB-435, 72 h, MDAMB435 cell line (skin)
  IC50: > 50 µM
Cancer cell lines; Homo sapiens, MDA-MB-436, 72 h, MDAMB436 cell line (breast)
  IC50: > 50 µM
Cancer cell lines; Homo sapiens, MDA-MB-468, 72 h, MDAMB468 cell line (breast)
  IC50: > 50 µM
Cancer cell lines; Homo sapiens, MG-63, 72 h, MG63 cell line (bone)
  IC50: > 50 µM
Cancer cell lines; Homo sapiens, MHH-ES-1, 72 h, MHHES1 cell line (bone)
  IC50: > 50 µM
Cancer cell lines; Homo sapiens, MIA PaCa-2, 72 h, MIAPACA2 cell line (pancreas)
  IC50: > 50 µM
Cancer cell lines; Homo sapiens, MINO, MINO cell line (hematological)
  IC50: 0.68 µM
Cancer cell lines; Homo sapiens, MV4-11, 72 h, MV4-11 cell line (hematological)
  IC50: > 50 µM
Cancer cell lines; Homo sapiens, NCI-H23, 72 h, NCI-H23 cell line (lung)
  IC50: > 50 µM
Cancer cell lines; Homo sapiens, NCI-H82, 72 h, NCIH82 cell line (lung)
  IC50: > 50 µM
Cancer cell lines; Homo sapiens, NCI-H292, 72 h, NCIH292 cell line (lung)
  IC50: > 50 µM
Cancer cell lines; Homo sapiens, NCI-H460, 72 h, NCIH460 cell line (lung)
  IC50: > 50 µM
Cancer cell lines; Homo sapiens, OVCAR-3, 72 h, OVCAR3 cell line (ovary)
  IC50: > 50 µM
Cancer cell lines; Homo sapiens, OVCAR-4, 72 h, OVCAR4 cell line (ovary)
  IC50: > 50 µM
Cancer cell lines; Homo sapiens, PANC-1, 72 h, PANC1 cell line (pancreas)
  IC50: > 50 µM
Cancer cell lines; Homo sapiens, PC-3, 72 h, PC3 cell line (prostate)
  IC50: > 50 µM
Cancer cell lines; Homo sapiens, PLC-PRF-5, 72 h, PLCPRF5 cell line (liver)
  IC50: > 50 µM
Cancer cell lines; Homo sapiens, Panc1005, 72 h, PANC1005 cell line (pancreas)
  IC50: > 50 µM
Cancer cell lines; Homo sapiens, RD, RD cell line (muscle)
  IC50: > 50 µM
Cancer cell lines; Homo sapiens, Ramos, RAMOS cell line (hematological)
  IC50: 8.68 µM
Cancer cell lines; Homo sapiens, SAOS-2, 72 h, SAOS2 cell line (bone)
  IC50: 2.05 µM
Cancer cell lines; Homo sapiens, SF-268, 72 h, SF268 cell line (brain)
  IC50: > 50 µM
Cancer cell lines; Homo sapiens, SF-295, 72 h, SF295 cell line (brain)
  IC50: > 50 µM
Cancer cell lines; Homo sapiens, SK-BR-3, 72 h, SKBR3 cell line (breast)
  IC50: > 50 µM
Cancer cell lines; Homo sapiens, SK-HEP1, 72 h, SKHEP1 cell line (liver)
  IC50: > 50 µM
Cancer cell lines; Homo sapiens, SK-LMS-1, 72 h, SKLMS1 cell line (uterus)
  IC50: > 50 µM
Cancer cell lines; Homo sapiens, SK-MEL-5, 72 h, SKMEL5 cell line, skin
  IC50: > 50 µM
Cancer cell lines; Homo sapiens, SK-MEL-28, 72 h, SKMEL28 cell line (skin)
  IC50: > 50 µM
Cancer cell lines; Homo sapiens, SK-N-AS, SKNAS cell line (brain)
  IC50: > 50 µM
Cancer cell lines; Homo sapiens, SK-N-SH, SKNSH cell line (brain)
  IC50: > 50 µM
Cancer cell lines; Homo sapiens, SK-OV-3, 72 h, SKOV3 cell line (ovary)
  IC50: > 50 µM
Cancer cell lines; Homo sapiens, SNB-75, 72 h, SNB75 cell line (brain)
  IC50: > 50 µM
Cancer cell lines; Homo sapiens, SU-DHL10, 72 h, SU-DHL-10 cell line (hematological)
  IC50: 2.55 µM
Cancer cell lines; Homo sapiens, SU-DHL-6, 72 h, SU-DHL-6 cell line (hematological)
  IC50: > 50 µM
Cancer cell lines; Homo sapiens, SW-620, 72 h, SW620 cell line (colon)
  IC50: > 50 µM
Cancer cell lines; Homo sapiens, T-24, 72 h, T24 cell line (bladder)
  IC50: > 50 µM
Cancer cell lines; Homo sapiens, TE-671, 72 h, TE671 cell line (muscle)
  IC50: > 50 µM
Cancer cell lines; Homo sapiens, THP-1, 72 h, THP-1 cell line (hematological)
  IC50: > 50 µM
Cancer cell lines; Homo sapiens, U-87 MG, U87MG cell line (brain)
  IC50: > 50 µM
Cancer cell lines; Homo sapiens, UMUC3, 72 h, UMUC3 cell line (bladder)
  IC50: > 50 µM
Cancer cell lines; Homo sapiens, UO-31, 72 h, UO31 cell line (kidney)
  IC50: > 50 µM
Cancer cell lines; Homo sapiens, WSU-NHL, WSU-NHL cell line (hematological)
  IC50: 2.32 µM
Cancer cell lines; MT-3, 72 h, MT3 cell line (breast)
  IC50: > 50 µM
Cancer cell lines; NCI-H358M, NCIH358M cell line (lung)
  IC50: > 50 µM
Cancer cell lines; PBMC, PBMC (hematological)
  IC50: > 50 µM
Cancer cell lines; RD-ES, RDES cell line (bone)
  IC50: > 50 µM
[1]; 12 nM CDA, 50 and 200 uM substrate, 37° C., pH 7.5, figure legends FIG. 4-9
  metabolism (deamination) by human CDA (line graph): not metabolized
[1]; rate of substrate conversion at 200 μM, could not be fitted
  substrate conversion by CDA (Inactive): Inactive
